Earlier results in patent US7025979B2, “Male contraceptive formulation comprising norethisterone” (Schering AG, priority 2000, dated 2006).

What was measured:
spermatogenesis = conditions: use of the progestin; literature (Merrigiola et al, Bebb et al)
[1] = in higher doses; literature (Merrigiola et al, Bebb et al)

CC(=O)O[C@]1(C(C)=O)CC[C@H]2[C@@H]3C=C(Cl)C4=CC(=O)[C@@H]5C[C@@H]5[C@]4(C)[C@H]3CC[C@@]21C [cyproterone acetate]
suppression of spermatogenesis (spermatogenesis): ineffective in the suppression of spermatogenesis
red blood cell count [1]: significant decreases in red blood cell count

C#C[C@]1(O)CC[C@H]2[C@@H]3CCC4=CC(=O)CC[C@@H]4[C@H]3CC[C@@]21CC [levonorgestrel]
red blood cell count [1]: significant decreases in red blood cell count
